Source: ChEMBL document CHEMBL4270532, “Molecular dynamics simulations of viral neuraminidase inhibitors with the human neuraminidase enzymes: Insights into isoenzyme selectivity” (Bioorg Med Chem, 2018)

How the values were obtained:
Sialidase-1 [1] = biological target: T1, Sialidase-1 (Homo sapiens, UniProt Q99519); test: Inhibition of recombinant His6-tagged human neuraminidase 1 expressed in HEK293 cells using 4MU-NANA as substrate preincubated for 15 mins followed by substrate addition measured after 30 mins by fluorescence analysis
Sialidase-3 [2] = biological target: T2, Sialidase-3 (Homo sapiens, UniProt Q9UQ49); test: Inhibition of MBP-fused recombinant human neuraminidase 3 expressed in Escherichia coli using 4MU-NANA as substrate preincubated for 15 mins followed by substrate addition measured after 30 mins by fluorescence analysis
T2 sequence (Q9UQ49 whole entry): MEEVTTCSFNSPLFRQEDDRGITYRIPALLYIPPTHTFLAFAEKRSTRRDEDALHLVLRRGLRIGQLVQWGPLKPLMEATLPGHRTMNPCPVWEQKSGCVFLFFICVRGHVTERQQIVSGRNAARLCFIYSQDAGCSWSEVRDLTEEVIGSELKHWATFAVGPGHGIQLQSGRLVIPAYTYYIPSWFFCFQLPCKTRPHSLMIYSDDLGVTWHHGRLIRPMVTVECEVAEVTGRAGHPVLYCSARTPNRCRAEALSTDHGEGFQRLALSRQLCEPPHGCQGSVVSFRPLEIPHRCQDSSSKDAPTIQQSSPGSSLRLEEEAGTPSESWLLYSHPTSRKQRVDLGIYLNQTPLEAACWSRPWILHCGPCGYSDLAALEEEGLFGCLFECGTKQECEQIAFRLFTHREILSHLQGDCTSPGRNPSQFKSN

Sialidase-4 [3] = biological target: T3, Sialidase-4 (Homo sapiens, UniProt Q8WWR8); test: Inhibition of MBP-fused recombinant human neuraminidase 4 expressed in Escherichia coli using 4MU-NANA as substrate preincubated for 15 mins followed by substrate addition measured after 30 mins by fluorescence analysis
T3 sequence (Q8WWR8 whole entry): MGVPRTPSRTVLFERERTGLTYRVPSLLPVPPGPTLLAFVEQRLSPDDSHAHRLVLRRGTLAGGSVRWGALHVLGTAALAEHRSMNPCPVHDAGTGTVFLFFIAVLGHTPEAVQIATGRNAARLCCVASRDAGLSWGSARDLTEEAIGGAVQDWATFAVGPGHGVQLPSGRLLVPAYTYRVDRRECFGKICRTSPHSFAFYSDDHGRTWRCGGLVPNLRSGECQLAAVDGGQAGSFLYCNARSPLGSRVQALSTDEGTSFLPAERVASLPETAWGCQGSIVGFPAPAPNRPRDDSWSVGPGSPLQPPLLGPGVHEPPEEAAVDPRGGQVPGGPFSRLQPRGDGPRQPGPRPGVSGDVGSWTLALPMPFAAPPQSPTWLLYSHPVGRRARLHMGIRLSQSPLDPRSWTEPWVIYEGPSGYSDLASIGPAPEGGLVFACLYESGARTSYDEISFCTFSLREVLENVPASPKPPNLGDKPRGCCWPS

Sialidase-1 [4] = biological target: T1, Sialidase-1; test: Inhibition of recombinant His6-tagged human neuraminidase 1 expressed in HEK293 cells using 4MU-NANA as substrate preincubated for 15 mins followed by substrate addition measured every 1 min for 30 mins by fluorescence analysis
Sialidase-3 [5] = biological target: T2, Sialidase-3; test: Inhibition of MBP-fused recombinant human neuraminidase 3 expressed in Escherichia coli using 4MU-NANA as substrate preincubated for 15 mins followed by substrate addition measured every 1 min for 30 mins by fluorescence analysis
Sialidase-4 [6] = biological target: T3, Sialidase-4; test: Inhibition of MBP-fused recombinant human neuraminidase 4 expressed in Escherichia coli using 4MU-NANA as substrate preincubated for 15 mins followed by substrate addition measured every 1 min for 30 mins by fluorescence analysis

IC50 (Sialidase-1 [1]) [µM] | IC50 (Sialidase-3 [2]) [µM] | IC50 (Sialidase-4 [3]) [µM] | Ki (Sialidase-1 [4]) | Ki (Sialidase-3 [5]) | Ki (Sialidase-4 [6]) | SMILES
> 500 | > 500 | > 500 | Not Active | Not Active | Not Active | CC(=O)N[C@H]1[C@H]([C@H](O)[C@H](O)CO)OC(O)(C(=O)O)C[C@@H]1O (some centres undefined)
> 500 | > 500 | > 500 | Not Active | Not Active | Not Active | CCOC(=O)C1=C[C@@H](OC(CC)CC)[C@H](NC(C)=O)[C@@H](N)C1 [OSELTAMIVIR]
> 500 | > 500 | > 500 | Not Active | Not Active | Not Active | CCC(CC)[C@H](NC(C)=O)[C@@H]1[C@H](O)[C@@H](C(=O)O)C[C@H]1NC(=N)N [PERAMIVIR ANHYDROUS]
 |  |  | Not Active |  |  | CC(=O)N[C@H]1[C@H]([C@H](O)[C@H](O)CO)OC(C(=O)O)=C[C@@H]1NC(=N)N [ZANAMIVIR]
